Data reported in ChEMBL document CHEMBL3877319, “Synthesis of Ofornine mimics from natural product l-vasicine as anti-hypertensive agents” (Bioorg Med Chem, 2017).

How the values were obtained:
Rattus norvegicus [1] = test: Anti-hypertensive activity in Wistar rat assessed as systolic blood pressure at 10 mg/kg, iv after 150 mins (reference value: 110 to 124.6 mmHg); assay type: functional
Mus musculus [2] = test: Acute toxicity in Swiss mouse assessed as hematocrit up to 2000 mg/kg, po measured on day 14 post dose (reference value: 40.114 +/- 14.74%); assay type: organism-based; settings: in vivo
Mus musculus [3] = test: Acute toxicity in Swiss mouse assessed as effect on feed up to 2000 mg/kg, po measured up to 13 days post dose; assay type: organism-based; settings: in vivo, 312 h
Mus musculus [4] = test: Acute toxicity in Swiss mouse assessed as change in general appearance up to 2000 mg/kg, po measured up to 13 days post dose; assay type: organism-based; settings: in vivo, 312 h
Mus musculus [5] = test: Acute toxicity in Swiss mouse assessed as serum triglyceride level up to 2000 mg/kg, po measured on day 14 post dose (reference value: […]); assay type: organism-based; settings: in vivo
Mus musculus [6] = test: Acute toxicity in Swiss mouse assessed as eosinophil level up to 2000 mg/kg, po measured on day 14 post dose (reference value: 2.233%); assay type: organism-based; settings: in vivo
Mus musculus [7] = test: Acute toxicity in Swiss mouse assessed as neutrophil level up to 2000 mg/kg, po measured on day 14 post dose (reference value: 14.56%); assay type: organism-based; settings: in vivo
Mus musculus [8] = test: Acute toxicity in Swiss mouse assessed as hemoglobin level up to 2000 mg/kg, po measured on day 14 post dose (reference value: 12.342 +/- 4.42 g/dl); assay type: organism-based; settings: in vivo
Rattus norvegicus [9] = test: Anti-hypertensive activity in Wistar rat assessed as systolic blood pressure at 10 mg/kg, iv after 180 mins (reference value: 110 to 124.6 mmHg); assay type: functional
Mus musculus [10] = test: Acute toxicity in Swiss mouse assessed as cholesterol level in serum up to 2000 mg/kg, po measured on day 14 post dose (reference value: […]); assay type: organism-based; settings: in vivo
Mus musculus [11] = test: Acute toxicity in Swiss mouse assessed as serum glucose level up to 2000 mg/kg, po measured on day 14 post dose (reference value: 105.78 +/- 5.217 mg/dl); assay type: organism-based; settings: in vivo
Rattus norvegicus [12] = test: Anti-hypertensive activity in Wistar rat assessed as diastolic blood pressure at 10 mg/kg, iv after 60 mins (reference value: 77.15 to 94.4 mmHg); assay type: functional
Rattus norvegicus [13] = test: Anti-hypertensive activity in Wistar rat assessed as diastolic blood pressure at 10 mg/kg, iv after 120 mins (reference value: 77.15 to 94.4 mmHg); assay type: functional
Mus musculus [14] = test: Acute toxicity in Swiss mouse assessed as lymphocytes level up to 2000 mg/kg, po measured on day 14 post dose (reference value: 79.433%); assay type: organism-based; settings: in vivo
Rattus norvegicus [15] = test: Anti-hypertensive activity in Wistar rat assessed as systolic blood pressure at 10 mg/kg, iv after 30 mins (reference value: 110 to 124.6 mmHg); assay type: functional
Mus musculus [16] = test: Acute toxicity in Swiss mouse assessed as mortality up to 2000 mg/kg, po measured up to 13 days post dose; assay type: organism-based; settings: in vivo, 312 h
Mus musculus [17] = test: Acute toxicity in Swiss mouse assessed as basophil level up to 2000 mg/kg, po measured on day 14 post dose (reference value: 0.1%); assay type: organism-based; settings: in vivo
Rattus norvegicus [18] = test: Anti-hypertensive activity in Wistar rat assessed as systolic blood pressure at 10 mg/kg, iv after 15 mins (reference value: 110 to 124.6 mmHg); assay type: functional
Mus musculus [19] = test: Acute toxicity in Swiss mouse assessed as ALT level in serum up to 2000 mg/kg, po measured on day 14 post dose (reference value: 49.87 +/- 3.277 IU/L); assay type: organism-based; settings: in vivo
Rattus norvegicus [20] = test: Anti-hypertensive activity in Wistar rat assessed as systolic blood pressure at 10 mg/kg, iv after 120 mins (reference value: 110 to 124.6 mmHg); assay type: functional
Mus musculus [21] = test: Acute toxicity in Swiss mouse assessed as effect on water consumption up to 2000 mg/kg, po measured up to 13 days post dose; assay type: organism-based; settings: in vivo, 312 h
Mus musculus [22] = test: Acute toxicity in Swiss mouse assessed as RBC count up to 2000 mg/kg, po measured on day 14 post dose (reference value: 8.97 +/- 3.15 10^6/microL); assay type: organism-based; settings: in vivo
Rattus norvegicus [23] = test: Anti-hypertensive activity in Wistar rat assessed as diastolic blood pressure at 10 mg/kg, iv after 5 mins (reference value: 77.15 to 94.4 mmHg); assay type: functional
Mus musculus [24] = test: Acute toxicity in Swiss mouse assessed as AST level in serum up to 2000 mg/kg, po measured on day 14 post dose (reference value: 162.53 +/- 5.455 IU/L); assay type: organism-based; settings: in vivo
Rattus norvegicus [25] = test: Anti-hypertensive activity in Wistar rat assessed as diastolic blood pressure at 10 mg/kg, iv after 150 mins (reference value: 77.15 to 94.4 mmHg); assay type: functional
Rattus norvegicus [26] = test: Anti-hypertensive activity in Wistar rat assessed as diastolic blood pressure at 10 mg/kg, iv after 30 mins (reference value: 77.15 to 94.4 mmHg); assay type: functional
Mus musculus [27] = test: Acute toxicity in Swiss mouse assessed as serum urea level up to 2000 mg/kg, po measured on day 14 post dose (reference value: 55.157 +/- 2.769 mg/dl); assay type: organism-based; settings: in vivo
Mus musculus [28] = test: Acute toxicity in Swiss mouse assessed as WBC count up to 2000 mg/kg, po measured on day 14 post dose (reference value: 8.35 +/- 4.53 10^3/microL); assay type: organism-based; settings: in vivo
Rattus norvegicus [29] = test: Anti-hypertensive activity in Wistar rat assessed as systolic blood pressure at 10 mg/kg, iv after 5 mins (reference value: 110 to 124.6 mmHg); assay type: functional
Mus musculus [30] = test: Acute toxicity in Swiss mouse assessed as mean corpuscular volume up to 2000 mg/kg, po measured on day 14 post dose (reference value: 44.85 +/- 17.65 fL); assay type: organism-based; settings: in vivo
Rattus norvegicus [31] = test: Anti-hypertensive activity in iv dosed Wistar rat assessed as decrease in blood pressure up to 180 mins; assay type: functional, organism-based
Mus musculus [32] = test: Acute toxicity in Swiss mouse assessed as monocytes level up to 2000 mg/kg, po measured on day 14 post dose (reference value: 3.66%); assay type: organism-based; settings: in vivo
Mus musculus [33] = test: Acute toxicity in Swiss mouse assessed as change in body weight up to 2000 mg/kg, po measured once in a week up to 13 days post dose; assay type: organism-based; settings: in vivo, 312 h
Rattus norvegicus [34] = test: Anti-hypertensive activity in Wistar rat assessed as systolic blood pressure at 10 mg/kg, iv after 60 mins (reference value: 110 to 124.6 mmHg); assay type: functional
Rattus norvegicus [35] = test: Anti-hypertensive activity in Wistar rat assessed as diastolic blood pressure at 10 mg/kg, iv after 180 mins (reference value: 77.15 to 94.4 mmHg); assay type: functional
Mus musculus [36] = test: Acute toxicity in Swiss mouse assessed as mean corpuscular hemoglobin up to 2000 mg/kg, po measured on day 14 post dose (reference value: 13.78 +/- 5.29 pg); assay type: organism-based; settings: in vivo
Rattus norvegicus [37] = test: Anti-hypertensive activity in Wistar rat assessed as diastolic blood pressure at 10 mg/kg, iv after 15 mins (reference value: 77.15 to 94.4 mmHg); assay type: functional
Mus musculus [38] = test: Acute toxicity in Swiss mouse assessed as platelet level up to 2000 mg/kg, po measured on day 14 post dose (reference value: 1542.71 +/- 474.34 10^3/microL); assay type: organism-based; settings: in vivo
Mus musculus [39] = test: Acute toxicity in Swiss mouse assessed as total protein level in serum up to 2000 mg/kg, po measured on day 14 post dose (reference value: 4.844 +/- 0.222 g/dl); assay type: organism-based; settings: in vivo
Mus musculus [40] = test: Acute toxicity in Swiss mouse assessed as uric acid level in serum up to 2000 mg/kg, po measured on day 14 post dose (reference value: […]); assay type: organism-based; settings: in vivo
Mus musculus [41] = test: Acute toxicity in Swiss mouse assessed as serum creatinine level up to 2000 mg/kg, po measured on day 14 post dose (reference value: 0.418 +/- 0.0259 mg/dl); assay type: organism-based; settings: in vivo

## O=C(c1ccccc1Nc1ccncc1)N1CC[C@H](O)C1
Rattus norvegicus [1]
  Activity: 87.13 mmHg
Mus musculus [2]
  Activity: 40.1%
Mus musculus [3]
  Activity: Non-Toxic
Mus musculus [4]
  Activity: Non-Toxic
Mus musculus [5]
  Activity: 89.6 mg/dL
Mus musculus [6]
  Activity: 3.457%
Mus musculus [7]
  Activity: 8.828%
Mus musculus [8]
  Activity: 13.342 g/dL
Rattus norvegicus [9]
  Activity: 108.8 mmHg
Mus musculus [10]
  Activity: 83 mg/dL
Mus musculus [11]
  Activity: 111.51 mg/dL
Rattus norvegicus [12]
  Activity: 64.09 mmHg
Rattus norvegicus [13]
  Activity: 69.81 mmHg
Mus musculus [14]
  Activity: 84.514%
Rattus norvegicus [15]
  Activity: 80.19 mmHg
Mus musculus [16]
  Activity: Non-Toxic
Mus musculus [17]
  Activity: 0.0714%
Rattus norvegicus [18]
  Activity: 82.41 mmHg
Mus musculus [19]
  Activity: 50.587 IU/L
Rattus norvegicus [20]
  Activity: 85.46 mmHg
Mus musculus [21]
  Activity: Non-Toxic
Mus musculus [22]
  Activity: 9.684 ×10⁶ /uL
Rattus norvegicus [23]
  Activity: 66.01 mmHg
Mus musculus [24]
  Activity: 145.84 IU/L
Rattus norvegicus [25]
  Activity: 73 mmHg
Rattus norvegicus [26]
  Activity: 62.55 mmHg
Mus musculus [27]
  Activity: 54.885 mg/dL
Mus musculus [28]
  Activity: 10.185 ×10³ /uL
Rattus norvegicus [29]
  Activity: 88 mmHg
Mus musculus [30]
  Activity: 41.3 fL
Rattus norvegicus [31]
  Activity: Dose-dependent effect
Mus musculus [32]
  Activity: 3.128%
Mus musculus [33]
  Activity: Non-Toxic
Rattus norvegicus [34]
  Activity: 79.29 mmHg
Rattus norvegicus [35]
  Activity: 79.06 mmHg
Mus musculus [36]
  Activity: 13.77 pg
Rattus norvegicus [37]
  Activity: 64.33 mmHg
Mus musculus [38]
  Activity: 1458.42 ×10³ /uL
Mus musculus [39]
  Activity: 5.224 g/dL
Mus musculus [40]
  Activity: 2.81 mg/dL
Mus musculus [41]
  Activity: 0.435 mg/dL
